In one test the test system is COX-1. Nature of the test: Assay for COX-1 activity in vitro (PGE2 formed, ELISA). Type of test: biochemical, human or murine. As to conditions: recombinant COX-1 from SF9 insect cells, arachidonic acid 10 μM, pH 8.0, 10-20 min pre-incubation. The method, then: The COX-2 inhibition activity of the compounds of this invention illustrated in the Examples was determined by the following methods.
a. Preparation of recombinant COX baculoviruses
Recombinant baculoviruses were isolated by transfecting 4 μg of baculovirus transfer vector DNA into SF9 insect cells (2×10^8) along with 200 ng of linearized baculovirus plasmid DNA by the calcium phosphate method. See M. D. Summers and G. E. Smith, A Manual of Methods for Baculovirus Vectors and Insect Cell Culture Procedures, Texas Agric. Exp. Station Bull. […] Recombinant viruses were purified by three rounds of plaque purification and high titer (10^7-10^8 pfu/mL) stocks of virus were prepared. For large scale production, SF9 insect cells were infected in 10 liter fermentors (0.5×10^6 /mL) with the recombinant baculovirus stock such that the multiplicity of infection was 0.1. […] The homogenate was centrifuged at 10,000×G for 30 minutes, and the resultant supernatant was stored at -80° C. before being assayed for COX activity.
COX activity was assayed as PGE2 formed/pg protein/time using an ELISA to detect the prostaglandin released. CHAPS-solubilized insect cell membranes containing the appropriate COX enzyme were incubated in a potassium phosphate buffer (50 mM, pH 8.0) containing epinephrine, phenol, and heme with the addition of arachidonic acid (10 μM). […] The PGE2 formed was measured by standard ELISA technology (Cayman Chemical).

In a further test the test system is rat paw edema. Nature of the test: Rat Carrageenan Foot Pad Edema Test. Type of test: in vivo, rat (Male Sprague-Dawley). The conditions noted are these: oral, 3 h after carrageenan injection. The method, then: The carrageenan foot edema test was performed with materials, reagents and procedures essentially as described by Winter, et al., (Proc. Soc. Exp. Biol. Med., 111, 544 (1962)). Male Sprague-Dawley rats were selected in each group so that the average body weight was as close as possible. Rats were fasted with free access to water for over sixteen hours prior to the test. The rats were dosed orally (1 mL) with compounds suspended in vehicle containing 0.5% methylcellulose and 0.025% surfactant, or with vehicle alone. One hour later a subplantar injection of 0.1 mL of 1% solution of carrageenan/sterile 0.9% saline was administered and the volume of the injected foot was measured with a displacement plethysmometer connected to a pressure transducer with a digital indicator. Three hours after the injection of the carrageenan, the volume of the foot was again measured. The average foot swelling in a group of drug-treated animals was compared with that of a group of placebo-treated animals and the percentage inhibition of edema was determined (Otterness and Bliven, Laboratory Models for Testing NSAIDs, in Non-steroidal Anti-Inflammatory Drugs, (J. Lombardino, ed. 1985)).
A general note: In the carrageenan paw model, swelling and tenderness develop within hours.

The nature of another test: Analgesia (Table I). Type of test: in vivo.

The structures appear in SMILES notation.

Regarding `Cc1ccc(-c2ccc(S(C)(=O)=O)cc2)n1-c1ccc(F)cc1` [Example 1, 1-(4-Fluorophenyl)-2-methyl-5-[4-(methylsulfonyl)phenyl]-1H-pyrrole], the IC50 in the test with COX-1 is over 100 µM.
On the same count and under the same terms, then `Cc1ccc(-c2ccc(S(C)(=O)=O)cc2)n1C1CCCCC1` [Example 7, 1-Cyclohexyl-2-methyl-5-[4-(methylsulfonyl)phenyl]-1H-pyrrole], with 62.4 µM.
For the compound `CS(=O)(=O)c1ccc(-n2cccc2-c2ccc(F)cc2)cc1` [Example 8, 2-(4-Fluorophenyl)--1-[4-(methylsulfonyl)phenyl]-1H-pyrrole], the “RAT PAW EDEMA % Inhibition @ 30mg/kg body weight” value in the test on rat paw edema was 56%. Besides, the “ANALGESIA % Inhibition @ 30mg/kg body weight” value in “Analgesia (Table I)” was determined as 47%.
In the case of `NS(=O)(=O)c1ccc(-n2cccc2-c2ccc(F)cc2)cc1` [Example 9, 4-[2-(4-Fluorophenyl)-1H-pyrrol-1-yl]benzenesulfonamide], the half-maximal inhibitory concentration (IC50) in the test on COX-1 amounted to 10.4 µM.
The same measure, in the same setting: to `CS(=O)(=O)c1ccc(-c2cccn2-c2ccc(F)cc2)cc1` [Example 10, 1-(4-Fluorophenyl)-2-[4-(methylsulfonyl)phenyl]-1H-pyrrole] belongs over 100 µM; to `Cc1c(S(=O)(=O)C(F)(F)F)cc(-c2ccc(S(C)(=O)=O)cc2)n1-c1ccc(F)cc1` [Example 16, 1-(4-Fluorophenyl)-2-methyl-5-[4-(methylsulfonyl)phenyl]-3-[(trifluoromethyl)sulfonyl]-1H-pyrrole], over 100 µM.
The same measure, in the same setting: to `Cc1c(COc2cccc(Cl)c2)cc(-c2ccc(S(C)(=O)=O)cc2)n1-c1ccc(F)cc1` [Example 25, 3-[(3-Chlorophenoxy)methyl]-1-(4-fluorophenyl)-2-methyl-5-[4-(methylsulfonyl)phenyl]-1H-pyrrole] belongs over 100 µM; to `Cc1c(COc2ccc(Cl)cc2)cc(-c2ccc(S(C)(=O)=O)cc2)n1-c1ccc(F)cc1` [Example 26, 3-[(4-Chlorophenoxy)methyl]-1-(4-fluorophenyl)-2-methyl-5-[4-(methylsulfonyl)phenyl]-1H-pyrrole], over 100 µM.

As a reminder, the IC50 is the point on the concentration scale where inhibition reaches its midpoint.
